Results taken from US12410164B2, “Heterocyclic compounds and medical use thereof” (FONDAZIONE TELETHON, priority 2018, dated 2025).

Each molecule was assayed against F508del-CFTR (Homo sapiens, UniProt P13569, DEL508-508) (assay: HS-YFP kinetic fluorescence (iodide quenching rate) assay in CFBE41o− cells). Details: Table 1; compound at 10 μM plus VX-809; (QRTOT − QRVX)/QRVX, HS-YFP assay.
Format: cell-based
Design: expressed in transfected cells; host or cells: CFBE41o- cells with expression of F508del-CFTR and HS-YFP (generated as in Sondo et al. 2011)
Experimental: CFBE41o- cells, with expression of F508del-CFTR and halogen-sensitive fluorescent protein, were generated as previously described (Sondo E, et al. Am J Physiol. 2011, 301, […]-[…]). For the test, the cells were seeded in 96-well microplates using a culture medium consisting of DMEM and Ham's F12 (1:1) supplemented with 10% foetal bovine serum. After 24 hours from seeding, the cells were treated for another 24 hours with the test compounds dissolved in the culture medium at the desired concentrations. As a negative control, the solvent of the compounds (dimethyl sulfoxide, DMSO) dissolved in the medium with the same dilution ratio (final percentage of DMSO:0.1-0.2%) was used. As a positive control, the corrector VX-809 (Selleck Chemicals, […]) was used at a concentration of 1 μM. After treatment, the medium with the compounds was removed and the cells were stimulated with forskolin (Sigma-Aldrich, F6886) 20 μM plus genistein (Sigma-Aldrich, G6649) 50 μM (in 60 μl of PBS saline) to maximally activate the CFTR channels present in the membrane. In a microplate reader (FLUOstar-Omega, BMG) the fluorescence of the cells in each well was read for 14 seconds, with an injection of 165 μl of a iodide-enriched saline (modified PBS where NaCl, 137 mM, has been replaced with the same concentration of NaI). The iodide transport activity in each well was evaluated by subtraction of the background fluorescence (measured in a well without cells), subsequent normalization with respect to the initial fluorescence and finally by interpolation of the fluorescence quenching phase with an exponential function that allows the derivation of the maximum slope (quenching rate, QR). The activity of the synthesized compounds was initially evaluated on the CFBE41o- cell line with expression of the mutated F508del-CFTR protein described above (Sondo E, et al. Am J Physiol. 2011, 301, […]-[…]). For this purpose, a functional assay based on the fluorescent YFP protein sensitive to halides, HS-YFP, was used (Galietta L J, et al. J Biol Chem. 2001, 276, 19723-19728). The fluorescence of the HS-YFP protein is turned off by iodide. Therefore, if exposed to a solution containing iodide, cells with HS-YFP expression show a quenching speed of the fluorescence which depends on the presence and activity of anionic channels. Under control conditions, the mutated CFTR protein presents a serious defect of stability and maturation, so it remains trapped in the endoplasmic reticulum not reaching the cell surface in enough quantity. In the HS-YFP-based assay, this defect results in a low anion transport capacity and therefore in a low quenching rate (QR). Treatment for a prolonged time (e.g. 24 hours) with a corrector determines an improvement in protein maturation with an increase in the number of CFTR channels present in the membrane and therefore an increase in the flux of iodide and QR. In a first phase, the authors screened about 200 heterocyclic molecules with various nitrogenated tricyclic scaffolds. Conditions previously described have been used for screening (Sondo E, et al. Am J Physiol. 2011, 301, […]-[…]) and reported herein in the Materials and Methods section. A threshold equal to the average value plus three times the standard deviation of the QR of wells without compounds (only DMSO in the culture medium) was used as a criterion for the selection of active compounds.

Chain of F508del-CFTR (P13569 with tags, fused parts or gaps DEL508-508): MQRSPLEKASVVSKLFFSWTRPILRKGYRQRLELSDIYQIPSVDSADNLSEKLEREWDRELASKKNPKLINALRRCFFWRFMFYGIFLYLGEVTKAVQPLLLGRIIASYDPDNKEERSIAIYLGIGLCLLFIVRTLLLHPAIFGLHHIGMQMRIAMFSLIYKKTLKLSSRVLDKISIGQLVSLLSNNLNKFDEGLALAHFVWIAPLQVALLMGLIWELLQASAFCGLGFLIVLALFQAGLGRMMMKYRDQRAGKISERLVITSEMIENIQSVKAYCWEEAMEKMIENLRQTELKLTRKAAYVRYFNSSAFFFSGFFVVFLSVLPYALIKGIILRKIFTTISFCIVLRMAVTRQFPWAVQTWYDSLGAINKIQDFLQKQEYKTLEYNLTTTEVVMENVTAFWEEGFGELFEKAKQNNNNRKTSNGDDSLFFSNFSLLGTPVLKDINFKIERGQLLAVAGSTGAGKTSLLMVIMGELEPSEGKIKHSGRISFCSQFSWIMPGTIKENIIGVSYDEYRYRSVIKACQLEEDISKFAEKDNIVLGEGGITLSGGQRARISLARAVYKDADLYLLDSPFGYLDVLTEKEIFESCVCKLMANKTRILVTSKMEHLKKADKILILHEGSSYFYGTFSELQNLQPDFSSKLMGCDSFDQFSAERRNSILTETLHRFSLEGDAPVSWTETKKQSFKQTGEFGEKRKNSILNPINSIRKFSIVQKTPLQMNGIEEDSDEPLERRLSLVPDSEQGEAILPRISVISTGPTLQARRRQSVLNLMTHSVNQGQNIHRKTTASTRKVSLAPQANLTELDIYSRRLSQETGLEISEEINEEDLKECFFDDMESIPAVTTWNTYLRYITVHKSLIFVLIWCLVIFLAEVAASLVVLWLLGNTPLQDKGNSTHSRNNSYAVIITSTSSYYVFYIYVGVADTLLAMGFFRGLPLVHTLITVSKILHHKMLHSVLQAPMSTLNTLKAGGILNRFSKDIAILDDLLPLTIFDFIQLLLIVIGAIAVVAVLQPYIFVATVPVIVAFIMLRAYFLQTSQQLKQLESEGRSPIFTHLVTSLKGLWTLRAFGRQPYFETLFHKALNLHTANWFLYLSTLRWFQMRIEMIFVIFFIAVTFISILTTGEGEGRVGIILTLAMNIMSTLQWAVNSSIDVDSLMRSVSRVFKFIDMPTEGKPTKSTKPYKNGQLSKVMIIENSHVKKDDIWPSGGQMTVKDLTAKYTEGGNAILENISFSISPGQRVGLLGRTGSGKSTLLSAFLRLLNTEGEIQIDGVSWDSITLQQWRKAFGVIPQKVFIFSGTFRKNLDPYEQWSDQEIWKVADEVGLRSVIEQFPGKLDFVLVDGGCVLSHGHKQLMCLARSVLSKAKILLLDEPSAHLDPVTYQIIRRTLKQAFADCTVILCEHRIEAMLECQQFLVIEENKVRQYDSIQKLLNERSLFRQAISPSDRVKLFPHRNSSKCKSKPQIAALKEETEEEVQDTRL

SMILES | AI (%) additivity index [%]
Cc1ccc(Cn2c(C(N)=O)c(Br)c3c2-c2[nH]c(=O)c(S(=O)(=O)c4ccccc4)cc2CC3)cc1 [PP089, 7-(Benzenesulfonyl)-3-bromo-1-[(4-methylphenyl)methyl]-8-oxo-4,5,8,9-tetrahydro-1H-pyrrolo[3,2-h]quinoline-2-carboxamide] | 11
CC(C)OC(=O)c1cc2c(n1CC1CC1)-c1[nH]c(=O)c(S(=O)(=O)c3ccccc3)cc1CC2 [PP105, Propan-2-yl 7-(benzenesulfonyl)-1-(cyclopropylmethyl)-8-oxo-4,5,8,9-tetrahydro-1H-pyrrolo[3,2-h]quinoline-2-carboxylate] | 174
CCOC(=O)c1cc2c(n1CCCN(C)C)-c1[nH]c(=O)c(S(=O)(=O)c3ccccc3)cc1CC2 [PP075, Ethyl 7-(benzenesulfonyl)-1-[3-(dimethylamino)propyl]-8-oxo-4,5,8,9-tetrahydro-1H-pyrrolo[3,2-h]quinoline-2-carboxylate] | 34
CCOC(=O)c1c(Cl)c2c(n1Cc1ccc(C)cc1)-c1[nH]c(=O)c(S(=O)(=O)c3ccccc3)cc1CC2 [PP076, Ethyl 7-(benzenesulfonyl)-3-chloro-1-[(4-methylphenyl)methyl]-8-oxo-4,5,8,9-tetrahydro-1H-pyrrolo[3,2-h]quinoline-2-carboxylate] | 244
CCOC(=O)c1c(Br)c2c(n1Cc1c(C)cc(C)cc1C)-c1[nH]c(=O)c(S(=O)(=O)c3ccccc3)cc1CC2 [PP069, Ethyl 7-(benzenesulfonyl)-3-bromo-8-oxo-1-[(2,4,6-trimethylphenyl)methyl]-4,5,8,9-tetrahydro-1H-pyrrolo[3,2-h]quinoline-2-carboxylate] | 175
CCOC(=O)c1c(I)c2c(n1Cc1ccc(C)cc1)-c1[nH]c(=O)c(S(=O)(=O)c3ccccc3)cc1CC2 [PP077, Ethyl 7-(benzenesulfonyl)-3-iodo-1-[(4-methylphenyl)methyl]-8-oxo-4,5,8,9-tetrahydro-1H-pyrrolo[3,2-h]quinoline-2-carboxylate] | 202
Cc1cccc(Cn2c(C(=O)NC3CC3)cc3c2-c2[nH]c(=O)c(S(=O)(=O)c4ccccc4)cc2CC3)c1 [PP084, 7-(Benzenesulfonyl)-N-cyclopropyl-1-[(3-methylphenyl)methyl]-8-oxo-4,5,8,9-tetrahydro-1H-pyrrolo[3,2-h]quinoline-2-carboxamide] | 10
O=C(NC1CC1)c1c(Br)c2c(n1Cc1ccc(Br)cc1)-c1[nH]c(=O)c(S(=O)(=O)c3ccccc3)cc1CC2 [PP099, 7-(Benzenesulfonyl)-3-bromo-1-[(4-bromophenyl)methyl]-N-cyclopropyl-8-oxo-4,5,8,9-tetrahydro-1H-pyrrolo[3,2-h]quinoline-2-carboxamide] | 82
CCOC(=O)c1c(Br)c2c(n1Cc1ccc(C)nc1)-c1[nH]c(=O)c(S(=O)(=O)c3ccccc3)cc1CC2 [PP067, Ethyl 7-(benzenesulfonyl)-3-bromo-1-[(6-methylpyridin-3-yl)methyl]-8-oxo-4,5,8,9-tetrahydro-1H-pyrrolo[3,2-h]quinoline-2-carboxylate] | 81
Cc1cccc(Cn2c(C(=O)OC(C)C)cc3c2-c2[nH]c(=O)c(S(=O)(=O)c4ccccc4)cc2CC3)c1 [PP103, Propan-2-yl 7-(benzenesulfonyl)-1-[(3-methylphenyl)methyl]-8-oxo-4,5,8,9-tetrahydro-1H-pyrrolo[3,2-h]quinoline-2-carboxylate] | 284
CCOC(=O)c1cc2c(n1CC1CC1)-c1[nH]c(=O)c(S(=O)(=O)c3ccccc3)cc1CC2 [PP064, Ethyl 7-(benzenesulfonyl)-1-(cyclopropylmethyl)-8-oxo-4,5,8,9-tetrahydro-1H-pyrrolo[3,2-h]quinoline-2-carboxylate] | 235
CC(C)NC(=O)c1cc2c(n1Cc1ccc(Br)cc1)-c1[nH]c(=O)c(S(=O)(=O)c3ccccc3)cc1CC2 [PP096, 7-(Benzenesulfonyl)-1-[(4-bromophenyl)methyl]-8-oxo-N-(propan-2-yl)-4,5,8,9-tetrahydro-1H-pyrrolo[3,2-h]quinoline-2-carboxamide] | 3
Cc1cccc(Cn2c(C(=O)O)cc3c2-c2[nH]c(=O)c(S(=O)(=O)c4ccccc4)cc2CC3)c1 [PP090, 7-(Benzenesulfonyl)-1-[(3-methylphenyl)methyl]-8-oxo-4,5,8,9-tetrahydro-1H-pyrrolo[3,2-h]quinoline-2-carboxylic acid] | 36
CCOC(=O)c1cc2c(n1Cc1ccccc1)-c1[nH]c(=O)c(S(=O)(=O)c3ccccc3)cc1CC2 [PP011] | 150

Same assay, conditions: Table 1a; compound at 10 μM plus VX-809; (QRTOT − QRVX)/QRVX

SMILES | AI additivity index [%]
CCOC(=O)c1cc2ccc3cc(S(=O)(=O)c4ccccc4)c(=O)[nH]c3c2n1Cc1ccc(C)cc1 [14 (PP058), Ethyl 1-(4-methylbenzyl)-8-oxo-7-(phenylsulfonyl)-8,9-dihydro-1H-pyrrolo[3,2-h]quinoline-2-carboxylate] | 177

Same assay, conditions: Table 3; compound at 10 μM plus VX-809; (QRTOT-QRVX)/QRVX

SMILES | AI additivity index [%]
CCOC(=O)c1c(Br)c2c(n1Cc1ccc(C)cc1)-c1nc(NS(=O)(=O)c3ccccc3)ncc1CC2 [SVQ10, Ethyl 2-[(benzenesulfonyl)amino]-7-bromo-9-[(4-methylphenyl)methyl]-6,9-dihydro-5H-pyrrolo[3,2-h]quinazoline-8-carboxylate] | 134
CCOC(=O)c1c(Br)c2c(n1Cc1ccc(C)c(C)c1)-c1nc(NS(=O)(=O)c3ccccc3)ncc1CC2 [SVQ14, Ethyl 2-[(benzenesulfonyl)amino]-7-bromo-9-[(3,4-dimethylphenyl)methyl]-6,9-dihydro-5H-pyrrolo[3,2-h]quinazoline-8-carboxylate] | 128
CCOC(=O)c1cc2c(n1Cc1ccc(C)c(C)c1)-c1nc(NS(=O)(=O)c3ccccc3)ncc1CC2 [SVQ13, Ethyl 2-[(benzenesulfonyl)amino]-9-[(3,4-dimethylphenyl)methyl]-6,9-dihydro-5H-pyrrolo[3,2-h]quinazoline-8-carboxylate] | 86

Same assay, conditions: Table 4; compound at 10 μM plus VX-809; (QRTOT − QRVX)/QRVX

SMILES | AI (%) additivity index [%]
CC(C)OC(=O)c1ccc2n1CCCc1cc(S(=O)(=O)c3ccccc3)c(=O)[nH]c1-2 [QZN13, Propan-2-yl 3-(benzenesulfonyl)-2-oxo-1,5,6,7-tetrahydro-2H-pyrido[2,3-c]pyrrolo[1,2-a]azepine-9-carboxylate] | 8

Same assay, conditions: Table 5; compound at 10 μM plus VX-809; (QRTOT-QRVX)/QRVX

SMILES | AI (%) additivity index [%]
CC(=O)Nc1ncc2c(n1)-c1ccc(C(=O)OC(C)C)n1CCC2 [QZQ26, Propan-2-yl 2-acetamido-6,7-dihydro-5H-pyrimido[4,5-c]pyrrolo[1,2-a]azepine-9-carboxylate] | 2
CC(C)OC(=O)c1ccc2n1CCCc1cnc(N)nc1-2 [QZQ21, Propan-2-yl 2-amino-6,7-dihydro-5H-pyrimido[4,5-c]pyrrolo[1,2-a]azepine-9-carboxylate] | 6

Same assay, conditions: Table 6; compound at 10 μM plus VX-809; (QRTOT-QRVX)/QRVX

SMILES | AI (%) additivity index [%]
CCOC(=O)c1nn(Cc2ccc(Br)cc2)c2c1CCc1cc(S(=O)(=O)c3ccccc3)c(=O)[nH]c1-2 [PZ5, Ethyl 7-(benzenesulfonyl)-1-[(4-bromophenyl)methyl]-8-oxo-4,5,8,9-tetrahydro-1H-pyrazolo[4,3-h]quinoline-3-carboxylate] | 64
CCOC(=O)c1nn(Cc2cccc(C)c2)c2c1CCc1cc(S(=O)(=O)c3ccccc3)c(=O)[nH]c1-2 [PZ3, Ethyl 7-(benzenesulfonyl)-1-[(3-methylphenyl)methyl]-8-oxo-4,5,8,9-tetrahydro-1H-pyrazolo[4,3-h]quinoline-3-carboxylate] | 163

Same assay, conditions: relative to the analogue

SMILES | structure-activity comparison of corrector potency/activity
CCOC(=O)c1cc2c(n1Cc1ccccc1)-c1[nH]c(=O)c(S(=O)(=O)c3ccccc3)cc1CC2 [PP011] | causes a reduction in activity
